Experimental data as given in PMC9655119, “Sustained Activation of CLR/RAMP Receptors by Gel-Forming Agonists” (International Journal of Molecular Sciences, 2022).
Read-outs that look alike come from different tables or passages of the source.

Key:
human CLR/RAMP1 = target: T1, human CLR/RAMP1 (Homo sapiens, UniProt O60894+Q16602); test: CLR/RAMP1 receptor-activation assay (DiscoverX cAMP Hunter, HitHunter cAMP XS+); format: cell-based; conditions: read-out: CLR/RAMP1 Max Activity
T1 construct: host or cells: 1321N1 cells (cAMP Hunter cell line)
T1 sequence (Q16602 23-461): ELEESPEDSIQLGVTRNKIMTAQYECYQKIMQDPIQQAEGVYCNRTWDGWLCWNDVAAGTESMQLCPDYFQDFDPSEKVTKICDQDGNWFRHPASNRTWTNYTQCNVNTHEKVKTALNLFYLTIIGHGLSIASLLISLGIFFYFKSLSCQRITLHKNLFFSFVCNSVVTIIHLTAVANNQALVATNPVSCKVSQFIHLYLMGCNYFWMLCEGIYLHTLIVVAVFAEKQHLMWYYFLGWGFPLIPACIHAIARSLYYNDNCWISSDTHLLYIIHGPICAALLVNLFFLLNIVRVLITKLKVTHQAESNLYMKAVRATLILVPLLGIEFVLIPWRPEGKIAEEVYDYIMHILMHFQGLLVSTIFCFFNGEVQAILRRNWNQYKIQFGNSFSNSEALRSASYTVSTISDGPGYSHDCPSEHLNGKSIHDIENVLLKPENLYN
T1 sequence (O60894 27-148): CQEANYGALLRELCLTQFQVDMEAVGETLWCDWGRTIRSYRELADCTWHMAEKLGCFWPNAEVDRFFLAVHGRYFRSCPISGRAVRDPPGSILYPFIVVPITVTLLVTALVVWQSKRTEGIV
Description: (§1) The bioactivity of peptide analogs was studied using CLR/RAMP1, CLR/RAMP2, and CLR/RAMP3 assays by DiscoveRx (Fremont, CA, USA) in cells that stably express human CLR/RAMP1 (1321N1 cells), CLR/RAMP2 (CHO-K1 cells), or CLR/RAMP3 (CHO-K1 cells). The dose-dependent stimulatory effect of agonists was studied in duplicate, at 10 different concentrations. Determination of the half-maximal effective concentration (EC50) was performed using a 10-point dose-response curves. The starting concentration was 1.0 μM, and it was serially diluted 3-fold, in DMSO.
Cells were seeded in a total volume of 20 μL into 384-well microplates, and the activity was determined using the DiscoverX HitHunter cAMP XS + assay. Before the assay, media was aspirated from cells and replaced with 15 μL 2:1 HBSS/10 mM Hepes: cAMP XS + Ab reagent. Intermediate dilution of samples was performed to generate 4X sample in assay buffer, and 5 μL of the 4X sample was added to cells and incubated at 37°C. Vehicle concentration was 1%.
The chemiluminescent signal was read with a PerkinElmer instrument.

human CLR/RAMP2 = target: T2, human CLR/RAMP2 (Homo sapiens, UniProt O60895+Q16602); test: CLR/RAMP2 receptor-activation assay (PathHunter β-Arrestin); format: cell-based; conditions: […], read-out: CLR/RAMP2 Max Activity
T2 construct: host or cells: CHO-K1 cells (PathHunter β-Arrestin cell line)
T2 sequence (Q16602 23-461): as the sequence (Q16602 23-461) above
T2 sequence (O60895 43-175): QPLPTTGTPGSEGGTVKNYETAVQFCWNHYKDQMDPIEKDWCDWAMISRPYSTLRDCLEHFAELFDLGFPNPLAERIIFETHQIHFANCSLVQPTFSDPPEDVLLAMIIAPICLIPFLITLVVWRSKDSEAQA
Description: as §1
In this assay, the CLR was fused in frame with a small enzyme donor fragment ProLink™ (PK). The receptor was co-expressed with a fusion protein of β-arrestin and an N-terminal deletion mutant of β-galactosidase (i.e., enzyme acceptor). Activation of the CLR/RAMP2 receptor stimulated the binding of β-arrestin to the PK-tagged receptor and led to an increase in enzyme activities which can then be measured with the PathHunter detection reagents. PathHunter cell lines were seeded in a total volume of 20 μL into 384-well microplates and incubated at 37 °C prior to the assay. Intermediate dilution of samples was performed to generate 5X samples in the assay buffer. A 5 μL aliquot of 5X sample was added to cells and incubated at 37 °C for 90 min. Vehicle concentration was 1%.

Emax (human CLR/RAMP1; percentage of positive control β-CGRP) [%]	Compound	Emax (human CLR/RAMP2) [%]	Emax (human CLR/RAMP1) [%]
103	CSCC[C@H](NC(=O)CNC(=O)CNC(=O)[C@H](CO)NC(=O)[C@H](CCCNC(=N)N)NC(=O)[C@H](CO)NC(=O)[C@H](CC(C)C)NC(=O)[C@H](CC(C)C)NC(=O)CNC(=O)[C@H](C)NC(=O)[C@H](CC(C)C)NC(=O)[C@H](CCCNC(=N)N)NC(=O)[C@H](Cc1c[nH]cn1)NC(=O)[C@@H](NC(=O)[C@@H](NC(=O)[C@@H]1CSSC[C@H](NC(=O)[C@H](C)N)C(=O)N[C@@H](CC(N)=O)C(=O)N[C@@H]([C@@H](C)O)C(=O)N[C@@H](C)C(=O)N[C@@H]([C@@H](C)O)C(=O)N1)C(C)C)[C@@H](C)O)C(=O)N[C@H](C(=O)N[C@@H](CCCCN)C(=O)N[C@@H](CO)C(=O)N[C@@H](CC(N)=O)C(=O)N[C@@H](Cc1ccccc1)C(=O)N[C@H](C(=O)N1CCC[C@H]1C(=O)N[C@H](C(=O)N[C@@H](CC(N)=O)C(=O)N[C@H](C(=O)NCC(=O)N[C@@H](CO)C(=O)N[C@@H](CCCCN)C(=O)N[C@@H](C)C(=O)N[C@@H](Cc1ccccc1)C(N)=O)C(C)C)[C@@H](C)O)C(C)C)C(C)C [CGRP, calcitonin gene-related peptide, reference compound]		
	CCCCCCCCCCCCCCCC(=O)NCCCC[C@H](NC(=O)COCCOCCN)C(=O)NCC(=O)N[C@H]1CSSC[C@@H](C(=O)N[C@H](C(=O)N[C@H](C(=O)N[C@@H](CCC(N)=O)C(=O)N[C@@H](CCCCN)C(=O)N[C@@H](CC(C)C)C(=O)N[C@@H](C)C(=O)N[C@@H](Cc2c[nH]cn2)C(=O)N[C@@H](CCC(N)=O)C(=O)N[C@H](C(=O)N[C@@H](Cc2ccc(O)cc2)C(=O)N[C@@H](CCC(N)=O)C(=O)N[C@@H](Cc2ccccc2)C(=O)N[C@H](C(=O)N[C@@H](CC(=O)O)C(=O)N[C@@H](CCCCN)C(=O)N[C@@H](CC(=O)O)C(=O)N[C@@H](CCCCN)C(=O)N[C@@H](CC(=O)O)C(=O)N[C@@H](CC(N)=O)C(=O)N[C@H](C(=O)N[C@@H](CC(=O)O)C(=O)N2CCC[C@H]2C(=O)N[C@@H](CO)C(=O)N[C@@H](CO)C(=O)N2CCC[C@H]2C(=O)N[C@@H](Cc2c[nH]cn2)C(=O)N[C@@H](CO)C(=O)N[C@@H](Cc2ccc(O)cc2)C(N)=O)C(C)C)[C@@H](C)O)[C@@H](C)CC)C(C)C)[C@@H](C)O)NC(=O)[C@H]([C@@H](C)O)NC(=O)CNC(=O)[C@H](Cc2ccccc2)NC(=O)[C@H](CCCNC(=N)N)NC1=O [Analog D-4]	82	67
	CCCCCCCCCCCCCCCC(=O)NCCCC[C@H](NC(=O)COCCOCCN)C(=O)NCC(=O)N[C@H]1CSSC[C@@H](C(=O)N[C@H](C(=O)N[C@H](C(=O)N[C@@H](CCC(N)=O)C(=O)N[C@@H](CCCCN)C(=O)N[C@@H](CC(C)C)C(=O)N[C@@H](C)C(=O)N[C@@H](Cc2c[nH]cn2)C(=O)N[C@@H](CCC(N)=O)C(=O)N[C@H](C(=O)N[C@@H](Cc2ccc(O)cc2)C(=O)N[C@@H](CCC(N)=O)C(=O)N[C@@H](Cc2ccccc2)C(=O)N[C@H](C(=O)N[C@@H](CC(=O)O)C(=O)N[C@@H](CCCCN)C(=O)N[C@@H](CC(=O)O)C(=O)N[C@H](C(=O)N[C@@H](C)C(=O)N2CCC[C@H]2C(=O)N[C@@H](CCCNC(=N)N)C(=O)N[C@@H](CO)C(=O)N[C@@H](CCCCN)C(=O)N[C@H](C(=O)N[C@@H](CO)C(=O)N2CCC[C@H]2C(=O)N[C@@H](CCC(N)=O)C(=O)NCC(=O)N[C@@H](Cc2ccc(O)cc2)C(N)=O)[C@@H](C)CC)C(C)C)[C@@H](C)O)[C@@H](C)CC)C(C)C)[C@@H](C)O)NC(=O)[C@H]([C@@H](C)O)NC(=O)CNC(=O)[C@H](Cc2ccccc2)NC(=O)[C@H](CCCNC(=N)N)NC1=O [Analog D-6]	74	56
